Legend:
[1] = molecular target: T1, YAP protein (Homo sapiens, UniProt P46937); assay: YAP inhibitor treatment of HEK293T-laden auxetic scaffold under cyclic tensile stimulation; format: cell-based
T1 construct: endogenous in cells; host or cells: HEK293T
Excerpt: In the present invention, hydrogels with an auxetic structure were fabricated through a template moulding process. Considering that the cell-laden hydrogels with an auxetic structure should be compatible with a tensile bioreactor, three components were used to produce the construct: a Pluronic F-127 solution, GelMa, and cell-laden FGelMa. A positive mould was designed and printed using the BioX bioprinter (Cellink, Sweden) with the Pluronic F-127 (Sigma-Aldrich) solution at a concentration of 30 wt % in distilled water. […] For the mould printing, the stereolithography (STL) model was designed and developed using SolidWorks. The STL file was then converted into a g-code file, which was used to determine the movements and printing paths of the bioprinter, using sliver software. After housing the fugitive ink in a syringe barrel equipped with a luer-locked nozzle with an inner diameter of 150 μm, the fugitive ink was deposited on a glass slide by applying a pneumatic pressure at 170 kPa to form a filament with diameter of approximately 250 μm, using a syringe moving speed of 25 mm/s. The fugitive mould of the auxetic construct was fabricated layer-by-layer (150 μm per layer) until the final thickness of the construct reached 2.1 mm. […]

[2] = tested on: MDA-MB-231 cells; assay: Cytotoxicity of exosomes loaded with miRNA and DOX; format: cell-based; details: MDA-MB-231, after 24 h and 48 h
Procedure: The cell cultured on 96-well with Exo/CARExo for the collection of different time-points, the culture medium was collected and washed with PBS solution to remove any residual medium. Tetrazolium dye MTT (3-(4,5-dimethylthiazol-2-yl)-2,5-diphenyltetrazolium bromide) (Sigma-Aldrich) was mixed fresh medium with ratio of 1:9 and performed to assess for cell viability, which worked by acting on the respiratory chain. After 3 h of reaction, the MTT agent was removed and DMSO was added and left aside for 20 min to dissolve the formazan crystals and redistributed evenly into a 96-well. Absorbance was quantified by measuring at a wavelength of 570 nm to assess for cell viability.
Then, the present invention further increased the test group to six groups: Ctl, Drug, miR, CARExo, CARExo-Drug and CARExo-miR-Drug, to distinguish the validation of cancer cell killing efficacy (FIG. 10). […] Whereas CARExo or Drug only the effect was about 50%. It could be seen that the cocktail of exosomes can effectively and quickly kill cancer cells in the first time.

T1 sequence (P46937 whole entry): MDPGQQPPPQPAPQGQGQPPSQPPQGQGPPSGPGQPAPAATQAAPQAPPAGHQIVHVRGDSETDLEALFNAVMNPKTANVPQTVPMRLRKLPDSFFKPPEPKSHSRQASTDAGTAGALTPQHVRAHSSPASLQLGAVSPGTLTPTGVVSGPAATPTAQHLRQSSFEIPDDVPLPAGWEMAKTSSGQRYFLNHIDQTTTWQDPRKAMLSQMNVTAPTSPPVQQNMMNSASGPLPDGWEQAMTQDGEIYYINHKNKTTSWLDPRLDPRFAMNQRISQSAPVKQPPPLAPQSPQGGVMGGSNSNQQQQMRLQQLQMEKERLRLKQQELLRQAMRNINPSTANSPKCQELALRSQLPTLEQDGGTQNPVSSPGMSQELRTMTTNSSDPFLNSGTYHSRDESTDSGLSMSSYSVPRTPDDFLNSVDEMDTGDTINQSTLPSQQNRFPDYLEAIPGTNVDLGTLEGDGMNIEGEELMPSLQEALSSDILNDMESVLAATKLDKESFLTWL

Row | Compound | cell morphology [1] | secretion of exosomes relative to the cyclic tensile stimulation group [1] [%] | cell killing effect [2]
1 | Verteporfin | could not self-assemble to form three-dimensional spheroids | 5 | 
2 | COc1cccc2c1C(=O)c1c(O)c3c(c(O)c1C2=O)C[C@@](O)(C(=O)CO)C[C@@H]3O[C@H]1C[C@H](N)[C@H](O)[C@H](C)O1 [Drug, doxorubicin] |  |  | about 50%
